Test systems include HCC-2998 colon; 786-0 renal; CAKI-1 renal; NCI-H460 lung; RPMI-8226 leukemia; OVCAR-4 ovarian; OVCAR-5 ovarian; EKVX NSCLC; SK-OV-3 ovarian; K-562 leukemia.
Common to all, as to test: DTP human tumour cell line panel, 48 h

The structures appear in SMILES notation.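 Where inhibition never reached the appropriate level, the endpoint shown equals the highest concentration tested. Otherwise, values were interpolated linearly from a five-concentration, 48-hour dose response in 96-well plates. GI50: concentration for 50% inhibition of growth. Definition used: TGI = concentration required for complete inhibition of growth.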 A value given as a limit tells only on which side of the number the result lay.

The record followed here is PubChem BioAssay (NCI).

In the case of `N#Cc1ccc2c(-c3ccnc(NC4CC4)n3)c(-c3ccc(F)cc3)nn2c1`, the GI50 with HCC-2998 colon was over 25 µM; with 786-0 renal it was over 25 µM; in the assay on CAKI-1 renal it was 14.6 µM; in the assay on NCI-H460 lung, over 25 µM; with RPMI-8226 leukemia, over 25 µM; with OVCAR-4 ovarian it was over 25 µM. The GI50 in the assay with OVCAR-5 ovarian is over 25 µM; with EKVX NSCLC, over 25 µM; in the assay with SK-OV-3 ovarian, 22.4 µM; in the assay with K-562 leukemia, over 25 µM. In addition, the TGI with HCC-2998 colon, with 786-0 renal, in the assay with CAKI-1 renal, in the assay on NCI-H460 lung, in the assay with RPMI-8226 leukemia and with OVCAR-4 ovarian was over 25 µM each time. In addition, the total growth inhibition concentration (TGI) in the assay with OVCAR-5 ovarian, with EKVX NSCLC, with SK-OV-3 ovarian and in the assay with K-562 leukemia was over 25 µM in each case.
